How the values were obtained:
[1] = test system: mice, formalin-injected hind paw; test: formalin model of neuropathic pain; assay type: in vivo; conditions: for time spent licking the injured paw, 0-5 minutes: first phase, vehicle 51; for time spent licking the injured paw, 20-30 minutes: second phase, vehicle 66
Method: There are several well validated animal models of neuropathic pain available for assess of antinociceptive potential of drugs. Among the most frequently used model are chronic constriction injury models (for example Bennett and Xie, Pain, 1988) and the capsaicin (Gilchrist et al., Pain 1996) and formalin [Neuropharm., 48, 252-263, 2005; Pain, 51, 5-17, 1992] models. […] In this model, mice receive an injection of formalin (4.5%, 20 μl) into the plantar surface of the left hind paw and are afterwards placed into individual glass beakers (2 l capacity) for observation. The irritation caused by the formalin injection elicits a characteristic biphasic behavioural response, as quantified by the amount of time spent licking the injured paw. The first phase (˜0-10 minutes) represents direct chemical irritation and nociception, whereas the second (˜20-30 minutes) is thought to represent pain of neuropathic origin. The two phases are separated by a quiescent period in which behaviour returns to normal. Measuring the amount of time spent licking the injured paw in the two phases assesses the effectiveness of test compounds to reduce the neuropathic-like pain response.

[2] = target: T1, 5-HT2A receptor (Homo sapiens, UniProt P28223); test: functional FLIPR assay, 5-HT2A antagonism; assay type: cell-based; conditions: read-out: Kb, antagonist of the 5-HT2A receptor
T1 sequence (P28223 whole entry): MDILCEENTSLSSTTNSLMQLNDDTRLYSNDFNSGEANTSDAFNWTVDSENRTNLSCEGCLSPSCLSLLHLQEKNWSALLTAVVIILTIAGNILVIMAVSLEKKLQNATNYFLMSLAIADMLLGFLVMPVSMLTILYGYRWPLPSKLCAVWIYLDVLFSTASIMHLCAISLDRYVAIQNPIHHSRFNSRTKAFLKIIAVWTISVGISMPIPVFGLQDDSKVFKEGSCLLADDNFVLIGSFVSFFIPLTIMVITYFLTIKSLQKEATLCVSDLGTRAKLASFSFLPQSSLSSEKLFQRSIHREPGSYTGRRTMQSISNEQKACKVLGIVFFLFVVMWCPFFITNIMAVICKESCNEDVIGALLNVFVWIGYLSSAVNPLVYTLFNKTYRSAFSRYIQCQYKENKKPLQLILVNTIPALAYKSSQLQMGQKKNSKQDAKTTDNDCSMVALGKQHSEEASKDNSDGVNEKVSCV

[3] = target: T2, 5-HT2C receptor (Homo sapiens, UniProt P28335); test: affinity to human serotonin receptor 5-HT2C; assay type: binding; conditions: calculated from the Cheng-Prusoff equation
T2 sequence (P28335 33-458): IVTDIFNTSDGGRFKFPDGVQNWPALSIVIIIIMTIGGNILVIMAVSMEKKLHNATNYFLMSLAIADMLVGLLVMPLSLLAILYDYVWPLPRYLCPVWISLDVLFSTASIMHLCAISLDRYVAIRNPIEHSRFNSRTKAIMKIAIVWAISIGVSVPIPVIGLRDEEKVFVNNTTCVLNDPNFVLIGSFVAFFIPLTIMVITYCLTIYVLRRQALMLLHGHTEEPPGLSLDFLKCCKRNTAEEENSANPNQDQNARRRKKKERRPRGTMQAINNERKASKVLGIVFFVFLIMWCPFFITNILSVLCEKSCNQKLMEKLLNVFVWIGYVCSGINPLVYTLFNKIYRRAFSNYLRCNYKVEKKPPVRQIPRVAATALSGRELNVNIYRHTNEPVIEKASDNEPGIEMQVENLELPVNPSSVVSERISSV
Description: (§1) Affinity (Ki, nM) for compound I to human serotonin receptors calculated from the Cheng-Prusoff equation

[4] = target: T2, 5-HT2C receptor; test: functional assay, 5-HT2C antagonism; assay type: cell-based; conditions: read-out: Kb, antagonist of the 5-HT2C receptor
[5] = target: T1, 5-HT2A receptor; test: affinity to human serotonin receptor 5-HT2A; assay type: binding; conditions: calculated from the Cheng-Prusoff equation
Description: as §1

[6] = target: T3, [3H]-noradrenaline reuptake (NAT) (Rattus norvegicus, UniProt Q63380); test: inhibition of [3H]-noradrenaline reuptake in rat synaptosomes; assay type: biochemical
T3 construct: from tissue
T3 sequence (Q63380 1-617): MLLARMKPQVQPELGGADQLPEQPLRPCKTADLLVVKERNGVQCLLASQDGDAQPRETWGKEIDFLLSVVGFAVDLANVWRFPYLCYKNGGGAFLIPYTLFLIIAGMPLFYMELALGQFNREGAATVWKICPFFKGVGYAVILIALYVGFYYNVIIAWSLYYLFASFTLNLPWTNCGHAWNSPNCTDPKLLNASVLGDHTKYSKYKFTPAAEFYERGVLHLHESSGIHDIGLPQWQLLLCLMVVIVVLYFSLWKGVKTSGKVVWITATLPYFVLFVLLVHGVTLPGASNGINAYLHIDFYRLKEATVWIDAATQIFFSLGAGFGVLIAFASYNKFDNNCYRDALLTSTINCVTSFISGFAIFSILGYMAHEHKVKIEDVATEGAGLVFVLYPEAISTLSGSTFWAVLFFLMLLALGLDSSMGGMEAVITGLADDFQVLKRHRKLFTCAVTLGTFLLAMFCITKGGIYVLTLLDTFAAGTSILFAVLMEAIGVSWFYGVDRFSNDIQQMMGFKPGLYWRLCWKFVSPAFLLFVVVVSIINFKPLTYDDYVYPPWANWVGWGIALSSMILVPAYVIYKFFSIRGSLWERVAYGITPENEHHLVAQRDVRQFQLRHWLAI
Description: (§2) IC50 (nM) values Compound I inhibition of the reuptake in rat synaptosomes:
(§3) [^3H]-serotonin: 2.4 [^3H]-noradrenaline: 12

[7] = target: T4, [3H]-serotonin reuptake (SERT) (Rattus norvegicus, UniProt P31652); test: inhibition of [3H]-serotonin reuptake in rat synaptosomes; assay type: biochemical
T4 construct: from tissue
T4 sequence (P31652 whole entry): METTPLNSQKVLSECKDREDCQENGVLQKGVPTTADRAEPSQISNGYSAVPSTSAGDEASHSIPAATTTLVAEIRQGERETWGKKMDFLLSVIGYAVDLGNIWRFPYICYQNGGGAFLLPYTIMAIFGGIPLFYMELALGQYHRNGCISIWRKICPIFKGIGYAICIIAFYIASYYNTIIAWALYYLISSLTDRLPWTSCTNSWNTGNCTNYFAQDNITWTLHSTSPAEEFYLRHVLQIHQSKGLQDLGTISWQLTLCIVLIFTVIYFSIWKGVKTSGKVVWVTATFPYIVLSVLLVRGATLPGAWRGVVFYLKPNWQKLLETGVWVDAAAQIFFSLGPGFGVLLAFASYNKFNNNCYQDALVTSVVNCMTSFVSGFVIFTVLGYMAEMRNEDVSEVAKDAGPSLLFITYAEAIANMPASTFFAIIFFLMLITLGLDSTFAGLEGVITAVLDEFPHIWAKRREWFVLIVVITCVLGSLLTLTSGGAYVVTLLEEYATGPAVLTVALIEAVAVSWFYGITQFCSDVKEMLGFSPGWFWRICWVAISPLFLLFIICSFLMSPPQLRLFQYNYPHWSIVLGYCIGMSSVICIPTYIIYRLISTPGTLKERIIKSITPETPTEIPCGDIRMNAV
Description: as §2, §3

Cc1ccc(Sc2ccc(F)c(F)c2C2CCNCC2)c(F)c1 [compound I, 4-[2,3-difluoro-6-(2-fluoro-4-methyl-phenylsulfanyl)-phenyl]-piperidine]
time spent licking the injured paw, 0-5 minutes ([1]; 0.25 mg/kg s.c): 40 s
time spent licking the injured paw, 20-30 minutes ([1]; 0.25 mg/kg s.c): 48 s
time spent licking the injured paw, 0-5 minutes ([1]; 1 mg/kg s.c): 40 s
time spent licking the injured paw, 20-30 minutes ([1]; 1 mg/kg s.c): 21 s
time spent licking the injured paw, 0-5 minutes ([1]; 2.5 mg/kg s.c): 31 s
time spent licking the injured paw, 20-30 minutes ([1]; 2.5 mg/kg s.c): 7 s
effect in the first phase (direct chemical irritation and nociception) ([1]; 0.25-2.5 mg/kg s.c, in words): little effect
effect on time spent licking the injured paw in the second phase (neuropathic pain) ([1]; 0.25-2.5 mg/kg s.c, in words): clear and dose-dependent decrease
Kb [2]: ~130 nM
Ki [3]: 4.9 nM
Kb [4]: ~35 nM
Ki [5]: 13 nM
IC50 [6]: 12 nM
IC50 [7]: 2.4 nM
